According to patent publication US20260085068A1, “A NOVEL CRYSTALLINE FORM OF PRITELIVIR” (Assembly Biosciences, Inc., priority 2022, published 2026):
In brackets after ≈: the same amount, converted by molar mass.

Assay: Solubility determination in aqueous vehicle (0.9% NaCl and 0.5% polysorbate 80), filtrate analyzed by HPLC
Assay type: physicochemical
Protocol: Sample preparation: excess Type 8 was added to the vehicle containing 0.9% NaCl and 0.5% polysorbate 80 to achieve ˜3 mg/mL suspension. The mixture was sonicated for 15 minutes, then agitated at 500 rpm at room temperature. At 24 hours, the mixture was filtrated, and filtrate was analyzed by HPLC to determine the solubility. • Instrument: Agilent 1260 • Column: ACE ultracore super C18 (100 mm*4.6 mm*2.5 μm) (P/N: CORE-25A-1046U) • Wavelength: 234 nm • Column Temperature: 20° C. • Column Flow: 1.0 mL/min • Acquisition time: 25 min • Injection volume: 5 μL • Retention time: ˜14 min • Mobile Phase A: 5 mM (NH4)2HPO4 and 5 mM of NH4H2PO4 in H2O • Mobile Phase B: ACN [table] The solubility of Form C (hemihydrate as disclosed in WO 2018/096170) was determined in the same media used to determine the solubility of Type 8 as described above. Sample preparation: excess Form C was added to the vehicle containing 0.9% NaCl and 0.5% polysorbate 80. The mixture was sonicated for 15 minutes, then agitated at 500 rpm at room temperature. At 24 hours, the mixture was filtrated, and filtrate was analyzed by HPLC to determine the solubility.

Which results are given for Cc1nc(N(C)C(=O)Cc2ccc(-c3ccccn3)cc2)sc1S(N)(=O)=O [Type 8, N-methyl-N-(4-methyl-5-sulfamoylthiazol-2-yl)-2-(4-(pyridin-2-yl)phenyl) acetamide]?
solubility at 24 h (aqueous vehicle (0.9% NaCl and 0.5% polysorbate 80), aqueous with cosolvent or surfactant or cyclodextrin, thermodynamic from solid, RT, 0.9% NaCl and 0.5% polysorbate 80): ~70.7 µg/mL (≈ 176 µM); solubility (room temperature, aqueous media containing 0.9% NaCl and 0.5% polysorbate 80, at 24 hours): around 70.7 μg/mL
